Data: publication PMC10182956 (Archives of Toxicology, 2023)
Where “and” joins values, the source holds several entries; their conditions need not be identical. Identical values can stand only once. Entries after “also recorded” stand apart in the source; their conditions may differ.

Assays:
HepaRG cells [1] = test: High-content imaging assay: lipid accumulation (Bodipy lipid droplets); assay type: cell-based; conditions: HepaRG 24 h; for Lipid accumulation response (in words): population level, threshold ± 2 standard deviations of the response at the two lowest concentrations; for EC (BMC, 1 SD from control): Homo sapiens, lipid accumulation, Supplementary table 3, read-out: LA: Benchmark concentration (µM) per imaging endpoint calculated with BMDS software
[2] = Published in vivo pharmacokinetics (Css, plasma concentration, clearance); conditions: human; for hepatocyte CLint: hepatocytes (back-calculated, no incubation), in vitro intrinsic hepatic clearance calculated from in vivo clearance with formula 3, read-out: Calculated Clint (ul/min/10^6 cells); for In vivo Css (µM): calculated with Css = (Dose*F)/(Cl*dosing interval) or k0/Cl from published pharmacokinetic parameters, ref Bowsher et al. 1994, Welling et al. 1977
Experimental: For the model evaluation, Css of selected reference chemicals were predicted using formula 1 with the same dose rate from the in vivo Css measurements. […] The formula to calculate Clint was derived from the function calc_hepatic_clearance within the httk package. Predicted Css values were then compared to published in vivo Css values. If there was no published in vivo Css available, Css was then calculated based on published in vivo pharmacokinetic parameters using the following formula (Supplementary table 3)4 Css(mg/L)=(Dose×F)/(Cl×dosinginterval)
Supplementary table 3. Comparison of benchmark concentration and predicted Css with published pharmacokinetic values. Where indicated, in vivo derived Css values were calculated using following formula: Css = (Dose*F)/(Cl*dosing interval) or Css = k0/Cl with F = bioavailability, Cl = clearance, k0 = infusion rate and Css = steady state concentration.

HepaRG cells [3] = conditions: for Mitochondrial membrane potential response (in words): population level, threshold ± 2 standard deviations of the response at the two lowest concentrations
HepaRG cells [4] = conditions: for Oxidative stress response (in words): population level, threshold ± 2 standard deviations of the response at the two lowest concentrations
HepaRG cells [5] = conditions: HepaRG 24 h, population level; threshold ± 2 standard deviations of the response at the two lowest concentrations
Experimental: (§1) Cellular responses were quantified using a high-content imaging approach (Fig. 1). Based on cell viability assessment, concentrations below the EC50 level were tested in the high-content imaging assay. After 24 h chemical exposure, live cells were incubated with CellROX, which reflects hydroxyl radi [...

[6] = for OED: IVIVE derived median over all positive imaging endpoints, human simulation, Table 2
Experimental: In our study, a three-compartment steady state pharmacokinetic (PK) model was parameterized and used for the simulations. […] Human data were used except where otherwise stated. Steady-state concentration (Css) in the blood was calculated using formula 1 (Pearce et al. [2017])1 Cssmg/l=ko/(GFR×fup+Qliver+Qgut×fup×Clmetabolism/Qliver+Qgut+fup×Clmetabolism/Rblood2plasma) where ko = constant dose rate (mg/kg BW/day), fup = in vitro measured chemical fraction unbound in plasma, Clmetabolism = metabolic clearance scaled from in vitro intrinsic hepatic clearance, Rblood2plasma = ratio of blood concentration of a chemical to the plasma concentration, GFR = glomerular filtration rate (mean 5.17 ml/min/kg^3/4), Qliver = blood flow to the liver (mean 59.9 ml/min/kg^3/4), and Qgut = blood flow to the gut (mean 47.5 ml/min/kg^3/4). Fraction unbound, metabolic clearance, and Rblood2plasma values were obtained from the httk package or from literature. Recognizing that formula 1 is linear in dose rate (ko), oral equivalent doses (OED) were then calculated using the Css predicted for a 1 mg/kg/day dose rate as in formula 2 (Rotroff et al. [2010]).2 OEDmg/kg/day=BMCuM×1mg/kg/day/CssuM
The calculated OED corresponds to an oral daily dose which would lead to a plasma concentration equal to the in vitro-derived BMC. The OED is linearly related to the BMC and inversely related to Css. This equation is only valid for first-order metabolism (Rotroff et al. [2010]). A Monte Carlo analysis was used to simulate population variability in, GFR, Qliver, Qgut, and Clmetabolism across 1000 healthy individuals. Extrapolations were performed for each chemical and endpoint which was positive in the imaging assay. Every predicted parameter per chemical was then combined into one boxplot per endpoint, which contained all predicted OEDs across all positive endpoints.
Vice versa, predicted OED derived from BMC were compared to published exposure values of the corresponding chemicals. Simulations were performed in humans where pharmacokinetic parameters for humans were available; otherwise, estimations were calculated in rats or rabbits, as stated in Fig. 7.

HepaRG cells [7] = test: cells; conditions: Homo sapiens, 24 h, read-out: NM: Benchmark concentration (µM) per imaging endpoint calculated with BMDS software
Experimental: as §1

[8] = cited from earlier work
[9] = parameters: method as in earlier work; conditions: fraction unbound plasma; human; ref Aegerion Pharmaceuticals 2012; Bowsher et al. 1994; Scheen 1996; cited from earlier work
HepaRG cells [10] = test: cells; conditions: Homo sapiens, 24 h, read-out: MMP: Benchmark concentration (µM) per imaging endpoint calculated with BMDS software
[11] = atrazine: increase relative liver weight, ref Aguilar et al. [2009], ATSDR [2003], Food and Authority [2009a], Food and Authority [2009b], cited from earlier work
[12] = parameters: method as in Literature column of Supplementary table 4; conditions: value added to httk database; ref Supplementary table 4; cited from earlier work
HepaRG cells [13] = test: Cell viability assessment (WST-1 assay); assay type: cell-based, human; conditions: Homo sapiens, 24 h exposure, reference chemicals, 95% CI in brackets, read-out: EC50 µM (95% CI) from cell viability (WST-1)
Text: Undifferentiated HepaRG cells were purchased from Biopredic international (Saint Grégoire, France). HepaRG cells have unlimited growth capacity and phenotypic stability, stable enzymatic activities over 4 weeks of cultivation, and similar metabolic function to primary human hepatocytes, and also avoid limitations of primary cells such as donor variability and phenotypic instability (Aninat et al. [2006]; Guillouzo et al. [2007]; Lambert et al. [2009]; Lübberstedt et al. [2011]; Andersson et al. [2012]). The line contains two cell types, hepatocyte-like and cholangiocyte-like cells (Parent et al. [2004]), which allows for elucidation of cell-specific toxicity (Jossé et al. [2008]). Cells were seeded at a density of approximately 27′000 cells/cm^2 into a 150 × 25 mm petri dish and were cultured for 2 weeks in William’s E medium (cat. nr.: 32,551,020, ThermoFisher Scientific, Massachusetts, USA) supplemented with 2 mM glutamine, 10% (v/v) fetal bovine serum (FBS) good forte (cat. nr.: P40-47,500, PAN-Biotech, Aidenbach, Germany), 100 U/ml penicillin and 100 µg/ml streptomycin (cat. nr.: 15,140,122, ThermoFisher Scientific, Massachusetts, USA), 5 µg/ml Gibco recombinant AOF insulin (cat. nr.: A11382II, ThermoFisher Scientific, Massachusetts, USA) and 50 µM hydrocortisone hemisuccinate (cat. nr.: H4881, Sigma-Aldrich, St. Louis, USA) at 37 °C and 5% CO2. Differentiation was induced by culturing the cells for another 2 weeks in the above mentioned medium supplemented with 1.7% DMSO. After 4 weeks in culture, differentiated HepaRG cells were seeded at a high density of approximately 227′000 cells/cm^2 (72,000 cells/well with 100 µl per well) into black 96-well plates with a clear bottom (cat.nr.: 3603, Corning, New York, USA) and maintained for 10 days. After 10 days, cells were first adapted to treatment medium (culture medium containing 0.5% DMSO and 2% FBS) for 48 h and then used for cell viability and high-content imaging analysis.
Cell viability was analyzed using the WST-1 assay which is based on the measurement of mitochondrial dehydrogenase activity (cat. nr: ab155902, Abcam, Cambridge, UK). HepaRG cells were exposed to chemicals at defined concentrations for 24 h. Triton X-100 (0.01%) was a positive control. One hour before the end of incubation period, 10 µl of WST-1 reagent was added to each well, quickly mixed by shaking the plate, and returned to the cell culture incubator (37 °C, 5% CO2). After 1 h, absorbance was measured (450 nm, reference wavelength 620 nm) using a plate reader (Infinite M200 Pro, Tecan group, Männerdorf, Switzerland). Absorbance was then subtracted from the reference wavelength, corrected for background by subtracting values measured without cells, and then normalized to the solvent control, which was set to 100%. Dose–response data were fitted using drc package (Version 3.0.1) (Ritz et al. [2015]) in R 3.6.1. Data were from at least 3 independent experiments with 6 technical replicates per condition.

[14] = human, ref Bowsher et al. 1994, Scheen 1996
[15] = single cell analysis, highest concentration 250 µM

Row | Structure (SMILES) | Lipid accumulation response (in words) (HepaRG cells [1]) | EC (BMC, 1 SD from control) (HepaRG cells [1]) [µM] | hepatocyte CLint [2] [µL/min/1e6 cells] | Concentration at which decrease of mitochondrial membrane potential exceeded the threshold (HepaRG cells [3]; HepaRG 24 h) | Number of apoptotic cells (nuclear morphology) response (in words) (HepaRG cells [5]) | OED [6] [mg/kg/day] | EC (BMC) (HepaRG cells [7]) [µM] | Fup [9] | Mitochondrial membrane potential response (in words) (HepaRG cells [3]; HepaRG 24 h) | EC (BMC, 1 SD from control) (HepaRG cells [10]) [µM] | In vivo Css (µM) [2] | Oxidative stress response (in words) (HepaRG cells [4]; HepaRG 24 h) | LogP [12] | EC50 (HepaRG cells [13]) [µM] | other results
1 | CN(C)C(=N)N=C(N)N [metformin] | accumulated in a dose-dependent manner above the threshold; also recorded: having the potential to induce lipid accumulation | 987 | 4.01 | 50,000 µM | increased above the threshold | 6778 | 1940 | 0.99 | – | – | – | – | – | – | Concentration at which lipid accumulation was induced (HepaRG cells [1]; increase): 25,000 µM and 50,000 µM; Concentration at which decrease of oxidative stress fell below the threshold (HepaRG cells [4]; HepaRG 24 h): 50,000 µM; In vivo Css ([8]; human, published, ref Birkett and Miners 1991, Graham et al. 2011, Freedman and Somberg 1991, Vasudev et al. 2001): 5.2 µM
2 | O=C(O)c1cc(=O)[nH]c(=O)[nH]1 [Orotic acid] | did not stimulate lipid accumulation | – | – | – | – | – | – | – | dose-dependent increase in MMP exceeding the threshold | 423 | – | – | – | – | OED (mg/kg BW/day) ([6]; IVIVE derived median with 95% CI, from BMC of positive imaging endpoint, oral, daily dosing, Table 1): 61.2 (95% CI 21.1–134) mg/kg BW/day; OED compared with reported NOAEL, LOAEL concentrations or the exposure estimate (in words) ([6]; human): overlapped; In vivo blood plasma conc. ([8]; ref Aguilar et al. [2009], D’Apolito et al. [2012], Li et al. [2009]): 0.15 to 0.3 µM; NOAEL from literature (mg/kg BW/day) ([11]; first value of cell NOAEL/LOAEL): 50 mg/kg BW/day; LOAEL from literature (mg/kg BW/day) ([11]; second value of cell NOAEL/LOAEL): 100 mg/kg BW/day
3 | O=c1[nH]c(=O)n([C@@H]2O[C@H](CO)[C@@H](O)[C@@H]2F)cc1I [fialuridine] | neither induced lipid accumulation; also recorded: did not give rise to lipid accumulation | – | 0.173 | – | – | 5.6 | 45.1 | 0.375 | increased MMP | 6.3 | 0.6^3 µM | neither induced lipid accumulation, had any consistent impact on oxidative stress | -0.9 | – | Concentration at which increase of MMP (hyperpolarization) was observed / exceeded the threshold (HepaRG cells [3]; HepaRG 24 h): 25 µM; In vivo clearance (L/h): Nonrenal clearance [8, 14]: 2.06 L/h; In vivo clearance (L/h): Renal clearance [8, 14]: 4.21 L/h; In vivo clearance (L/h): Total clearance [8, 14]: 6.27 L/h
4 | CN(C)[C@@H]1C(O)=C(C(N)=O)C(=O)[C@@]2(O)C(O)=C3C(=O)c4c(O)cccc4[C@@](C)(O)[C@H]3C[C@@H]12 [tetracycline] | accumulated in a dose-dependent manner above the threshold | 32.9 | – | 250 µM | increased above the threshold | 30.2 | 32.7 | – | – | 218 | 9.7^3 µM | – | – | 238 | Mitochondrial membrane potential in hepatocyte-like and cholangiocyte-like cells (in words) (HepaRG cells [3]; [15]): decrease of mitochondrial membrane potential was observed in both cell types; Concentration at which increase of oxidative stress exceeded the threshold (HepaRG cells [4]; HepaRG 24 h): 125 µM and 250 µM; OS: Benchmark concentration (µM) per imaging endpoint calculated with BMDS software (HepaRG cells [4]; oxidative stress, HepaRG 24 h, Supplementary table 3): 69.7 µM; Oxidative stress in hepatocyte-like and cholangiocyte-like cells (in words) (HepaRG cells [4]; [15]): oxidative stress levels were elevated in both cell types
5 | O=C(NC1CCN(CCCCC2(C(=O)NCC(F)(F)F)c3ccccc3-c3ccccc32)CC1)c1ccccc1-c1ccc(C(F)(F)F)cc1 [lomitapide] | not and did not give rise to lipid accumulation | – | 48.3 | 12 µM | increased above the threshold | 1333 | 4 | 0.002 | – | 0.58 | 0.0002^3 µM | no changes were observed | 8.2 | 13.5 | In vivo clearance (L/h) ([8]; human, after 50 mg p.o., ref Aegerion Pharmaceuticals 2012): 573.4656 (after 50 mg p.o.) L/h
